Measurements taken from paper PMC11406360, “The enzymatic oxygen sensor cysteamine dioxygenase binds its protein substrates through their N-termini” (The Journal of Biological Chemistry, 2024).
Where a SMILES comes first, the peptide text is derived from it.

Experiments:
ADO-Co^2+ = target: T1, ADO-Co^2+ (Homo sapiens, UniProt Q96SZ5); experiment: LC-MS turnover time course with cobalt-substituted ADO; format: biochemical; conditions: 100 μM peptide, 0.1 μM enzyme, 37 °C, attributed to residual iron bound ADO
T1 construct: Full-length human ADO (UniProt ID: Q96SZ5) was cloned; made in house; host or cells: Rosetta2(DE3) Escherichia coli, M9 minimal media with 0.2 mM Co2+ or Zn2+
T1 sequence (Q96SZ5 1-270): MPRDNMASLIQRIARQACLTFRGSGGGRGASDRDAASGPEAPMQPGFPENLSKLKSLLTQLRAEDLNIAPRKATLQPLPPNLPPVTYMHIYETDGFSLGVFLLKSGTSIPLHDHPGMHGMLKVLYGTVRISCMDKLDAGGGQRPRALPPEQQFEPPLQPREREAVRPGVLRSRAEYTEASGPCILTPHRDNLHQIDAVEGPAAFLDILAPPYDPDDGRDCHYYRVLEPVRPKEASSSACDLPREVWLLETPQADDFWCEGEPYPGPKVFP
Procedure: (§1) The catalytic functionality of the metal substituted ADO proteins was subsequently assessed by LC-MS using RGS5 peptide as a representative protein substrate. […] However, product formation was observed following long incubation times (≥30 min), with ∼80% conversion detected overnight, which is likely attributed to the activity of residual iron bound ADO (Fig. 2, E and H). Together, these findings indicate that different transition metals can substitute iron to facilitate protein substrate binding but not catalysis.
(§2) The enzymatic activity of ADO was examined by incubating between 0 to 1000 μM peptide and protein substrates with 0.05 to 0.1 μM ADO in a bench-top thermomixer at 37 °C for 45 s. Otherwise stated, the reaction buffer contained 50 mM Tris pH 7.5, 50 mM NaCl, and 5 mM TCEP. […]
(§3) Peptide and protein samples were injected onto a Chromolith RP-18 Endcapped HPLC Columns (100–2 mm; Merck) and Discovery BIO Wide Pore C5 HPLC Column (Supelco), respectively, heated to 40 °C and eluted at 0.3 ml/min using a gradient of 95% deionized water supplemented with 0.1% (v/v) formic acid to 95% acetonitrile. Oxidation was monitored by an ultra high-performance liquid chromatography MS using ExionLC AD (Sciex) and SelexION (Sciex) mass spectrometer operated in a positive electrospray TOF (+ESI-TOF) mode. […]

[1] = target: T2, ADO (2-aminoethanethiol dioxygenase), iron-bound wild type (Homo sapiens, UniProt Q96SZ5); experiment: SPR binding of peptide/protein substrates to immobilised ADO; conditions: SPR steady state, 1:1 binding model, biotinylated ADO on Biotin CAP chip, 4 °C, 20 mM Hepes pH 7.5, 500 mM NaCl, 10 mM DTT, 0.1% tween-20; geometric mean (± SD) of minimum three independent measurements; read-out: Equilibrium dissociation constant KD
T2 construct: Full-length human ADO (UniProt ID: Q96SZ5) was cloned; made in house; host or cells: Rosetta2(DE3) Escherichia coli
T2 sequence (Q96SZ5 1-270): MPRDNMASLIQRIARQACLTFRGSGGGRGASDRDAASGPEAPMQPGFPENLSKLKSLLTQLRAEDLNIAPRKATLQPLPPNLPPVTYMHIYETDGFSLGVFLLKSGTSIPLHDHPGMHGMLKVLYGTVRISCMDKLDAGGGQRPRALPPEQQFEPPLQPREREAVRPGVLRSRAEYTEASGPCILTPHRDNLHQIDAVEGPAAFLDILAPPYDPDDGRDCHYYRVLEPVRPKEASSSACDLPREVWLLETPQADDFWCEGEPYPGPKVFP
Description: ADO catalyzes the O2-dependent sulfinylation of Nt-cys residues, which reportedly bind to the iron cofactor in a monodentate arrangement through ligation of the thiol group ([14], [15]). To test the importance of Nt-cys modifications and substitutions on ADO association, a SPR assay was established. […] Data collected under steady state conditions is presented in the main text and kinetic constants are provided in the Tables S1–S8 (alongside steady state measurements). All measurements were collected at 4 °C to minimize enzyme activity.
(§4) SPR measurements were made using a Biacore T200 (Cytiva) instrument and data were analyzed using the Biacore Insight Evaluation Software (Cytiva; https://www.cytivalifesciences.com/en/us/shop/protein-analysis/spr-label-free-analysis/spr-software-and-extensions/biacore-insight-evaluation-software-p-23528). Biotinylated-ADO was immobilized on a Biotin CAP chip (Cytiva) with a target density of ∼2500 to 3000 RU and peptide/protein substrates were injected over the chip. […] A buffer comprising 20 mM Hepes pH 7.5, 500 mM NaCl, 10 mM DTT, and 0.1% (v/v) tween-20 was used as the running buffer at a flow rate of 50 μl/min.
For metal-chelation experiments, a mixture of 10 mM 1, 10-phenanthroline and 100 mM EDTA (pH 8) was injected onto the chip using 10 × 60 s injections at a 100 μl/min flow rate. […] The instrument and chip were primed into buffer excluding reducing agents before conducting metal chelation and iron reconstitution.

ADO-Zn^2+ [2] = target: T3, ADO-Zn^2+ (Homo sapiens, UniProt Q96SZ5); experiment: LC-MS turnover time course with zinc-substituted ADO; format: biochemical; conditions: 100 μM peptide, 0.1 μM enzyme, 37 °C, attributed to residual iron bound ADO
T3 construct: Full-length human ADO (UniProt ID: Q96SZ5) was cloned; made in house; host or cells: Rosetta2(DE3) Escherichia coli, M9 minimal media with 0.2 mM Co2+ or Zn2+
T3 sequence (Q96SZ5 1-270): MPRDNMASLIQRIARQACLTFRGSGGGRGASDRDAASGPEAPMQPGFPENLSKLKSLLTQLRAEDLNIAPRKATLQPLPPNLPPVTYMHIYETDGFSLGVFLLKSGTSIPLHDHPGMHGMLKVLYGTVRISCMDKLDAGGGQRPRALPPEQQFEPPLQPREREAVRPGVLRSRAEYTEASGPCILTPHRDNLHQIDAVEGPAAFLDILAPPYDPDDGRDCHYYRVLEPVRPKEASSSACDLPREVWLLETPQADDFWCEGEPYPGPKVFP
Procedure: as §1, §2, §3

ADO-Zn^2+ [3] = target: T3, ADO-Zn^2+; experiment: SPR binding to zinc-substituted ADO; conditions: SPR steady state, 1:1 model, 4 °C; geometric mean of minimum three independent measurements
Procedure: To study if different metals can compensate for the inherent iron cofactor, zinc (Zn^2+) and cobalt (Co^2+) substituted ADO was produced through minimal media expression, validated by ICP-MS, and analyzed for binding by SPR (Fig. 2E).
as §4

ADO = target: T4, ADO (Homo sapiens, UniProt Q96SZ5); experiment: 15N-HSQC NMR titration with ADO; format: binding; conditions: 50 μM 15N-labelled protein, 20 mM Hepes pH 7.5, 150 mM NaCl, 10 mM DTT, ADO up to 800 μM
T4 construct: Full-length human ADO (UniProt ID: Q96SZ5) was cloned; made in house; host or cells: Rosetta2(DE3) Escherichia coli
T4 sequence (Q96SZ5 1-270): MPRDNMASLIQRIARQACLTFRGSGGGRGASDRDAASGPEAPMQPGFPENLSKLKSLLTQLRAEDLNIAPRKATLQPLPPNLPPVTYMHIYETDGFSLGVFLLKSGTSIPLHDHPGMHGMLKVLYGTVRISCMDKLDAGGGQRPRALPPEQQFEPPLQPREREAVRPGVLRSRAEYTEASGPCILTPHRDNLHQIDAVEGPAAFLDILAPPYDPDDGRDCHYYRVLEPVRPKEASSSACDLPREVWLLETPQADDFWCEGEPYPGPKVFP
Procedure: (§5) For titrations with ADO, ^15N-labeled RGS5^FL proteins were prepared at 50 μM, in buffer containing 20 mM Hepes pH 7.5, 150 mM NaCl, 10 mM DTT, and 10% (v/v) D2O. ^15N-HSQC spectra were collected before and after the addition of ADO to the labeled RGS5^FL samples. Intensity-based CSP plots were produced by calculating peak height values from the ^15N-HSQCs before and after addition of ADO and normalizing against the heights of ∼5 peaks from the HSQC that remained invariant throughout the titration.

ADO-H193D = target: T5, ADO-H193D (Homo sapiens, UniProt Q96SZ5, H193D); experiment: 15N-HSQC NMR titration with ADO-H193D; format: binding; conditions: 50 μM 15N-labelled protein, 150 μM ADO-H193D
T5 construct: Full-length human ADO (UniProt ID: Q96SZ5) was cloned; made in house; host or cells: Rosetta2(DE3) Escherichia coli
T5 sequence (Q96SZ5 1-270 H193D): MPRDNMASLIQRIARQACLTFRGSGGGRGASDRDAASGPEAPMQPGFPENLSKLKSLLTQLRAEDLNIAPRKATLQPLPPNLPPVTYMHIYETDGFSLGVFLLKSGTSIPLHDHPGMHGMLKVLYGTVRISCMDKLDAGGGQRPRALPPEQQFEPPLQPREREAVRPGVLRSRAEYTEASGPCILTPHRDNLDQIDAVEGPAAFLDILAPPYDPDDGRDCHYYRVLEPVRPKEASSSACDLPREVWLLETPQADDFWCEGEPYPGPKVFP
Procedure: as §5

Molecule	Conversion by ADO-Co^2+ overnight (ADO-Co^2+) [%]	Kd [1] [nM]	Conversion by ADO-Zn^2+ overnight (ADO-Zn^2+ [2]) [%]	Kd (ADO-Zn^2+ [3]) [nM]	15N-HSQC chemical shift perturbations on titration of ADO (ADO)	15N-HSQC interaction on titration of ADO-H193D (ADO-H193D)
CC(C)C[C@H](NC(=O)CNC(=O)[C@H](CCCCN)NC(=O)[C@@H](N)CS)C(=O)N[C@@H](C)C(=O)N[C@@H](C)C(=O)N[C@@H](CC(C)C)C(=O)N1CCC[C@H]1C(=O)N[C@@H](Cc1c[nH]cn1)C(=O)N[C@@H](CO)C(=O)N[C@@H](CS)C(=O)N[C@@H](CC(C)C)C(=O)N[C@@H](CCC(=O)O)C(=O)N[C@@H](CCCNC(=N)N)C(N)=O [RGS5] (H-CKGLAALPHSCLER-NH2)	~80	290 ± 45	~80	250 ± 370	–	–
RGS5^FL-C2S: full-length RGS5 C2S mutant (protein, left off: His tag, N-terminal, cleaved | SUMO, N-terminal, cleaved, full-length RGS5 C2S mutant) MSKGLAALPHSCLERAKEIKIKLGILLQKPDSVGDLVIPYNEKPEKPAKTQKTSLDEALQWRDSLDKLLQNNYGLASFKSFLKSEFSEENLEFWIACEDYKKIKSPAKMAEKAKQIYEEFIQTEAPKEVNIDHFTKDITMKNLVEPSLSSFDMAQKRIHALMEKDSLPRFVRSEFYQELIK	–	–	–	–	induced CSPs in the portion of the ^15N-HSQC corresponding to the disordered N terminus of RGS5	no interaction was observed
